In ChEMBL document CHEMBL1157533 (J Med Chem, 2008):

Tests used:
Format in all cases: functional, cell-based
[1] = target: Beta-1 adrenergic receptor (Homo sapiens, UniProt P08588); assay: Agonist activity at human recombinant beta-1 adrenergic receptor expressed in CHO cells assessed as cAMP accumulation by enzyme immuno assay
[2] = target: Beta-3 adrenergic receptor (Homo sapiens, UniProt P13945); assay: Agonist activity at human recombinant beta3 adrenergic receptor expressed in CHO cells assessed as cAMP accumulation by enzyme immuno assay
Chain of Beta-3 adrenergic receptor (P13945 whole entry): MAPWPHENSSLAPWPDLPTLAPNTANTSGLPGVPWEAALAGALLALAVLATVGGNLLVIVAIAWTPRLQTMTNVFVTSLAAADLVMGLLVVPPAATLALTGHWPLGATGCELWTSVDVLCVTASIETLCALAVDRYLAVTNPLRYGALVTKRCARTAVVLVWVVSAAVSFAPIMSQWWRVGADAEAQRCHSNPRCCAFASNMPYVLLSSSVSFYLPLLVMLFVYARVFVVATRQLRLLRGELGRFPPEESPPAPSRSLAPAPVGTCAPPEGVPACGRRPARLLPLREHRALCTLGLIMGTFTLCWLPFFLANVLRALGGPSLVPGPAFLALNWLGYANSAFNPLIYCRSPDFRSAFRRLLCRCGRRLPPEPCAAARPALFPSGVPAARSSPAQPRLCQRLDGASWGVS

[3] = target: Beta-2 adrenergic receptor (Homo sapiens, UniProt P07550); assay: Agonist activity at human recombinant beta2 adrenergic receptor expressed in CHO cells assessed as cAMP accumulation by enzyme immuno assay
Chain of Beta-2 adrenergic receptor (P07550 whole entry): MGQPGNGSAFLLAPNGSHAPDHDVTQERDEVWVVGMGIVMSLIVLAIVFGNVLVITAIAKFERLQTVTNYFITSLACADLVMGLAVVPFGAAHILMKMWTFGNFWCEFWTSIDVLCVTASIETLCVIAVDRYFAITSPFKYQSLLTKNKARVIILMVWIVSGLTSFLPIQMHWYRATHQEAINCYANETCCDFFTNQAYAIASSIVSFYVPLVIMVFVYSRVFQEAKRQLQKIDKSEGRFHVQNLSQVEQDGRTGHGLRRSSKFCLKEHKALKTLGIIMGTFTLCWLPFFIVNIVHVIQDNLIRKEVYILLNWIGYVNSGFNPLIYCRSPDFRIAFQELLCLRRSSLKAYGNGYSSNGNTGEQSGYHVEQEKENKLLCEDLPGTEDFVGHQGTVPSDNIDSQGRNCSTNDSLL

Chain of Beta-1 adrenergic receptor (P08588 whole entry): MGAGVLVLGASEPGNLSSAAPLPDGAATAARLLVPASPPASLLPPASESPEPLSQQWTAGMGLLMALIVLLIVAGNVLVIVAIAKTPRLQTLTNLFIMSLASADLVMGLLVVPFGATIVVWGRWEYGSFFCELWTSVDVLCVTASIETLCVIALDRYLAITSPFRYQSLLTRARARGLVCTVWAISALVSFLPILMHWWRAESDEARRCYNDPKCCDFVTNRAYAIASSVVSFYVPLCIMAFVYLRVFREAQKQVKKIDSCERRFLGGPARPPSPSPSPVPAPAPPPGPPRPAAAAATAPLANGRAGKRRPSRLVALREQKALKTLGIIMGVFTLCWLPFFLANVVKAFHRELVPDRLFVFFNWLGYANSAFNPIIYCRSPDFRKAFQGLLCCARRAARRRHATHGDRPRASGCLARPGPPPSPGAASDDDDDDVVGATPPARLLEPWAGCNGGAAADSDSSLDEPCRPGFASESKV

Row | EC50 [1] | EC50 [2] | EC50 [3] | SMILES
1 | 300 nM | 0.14 nM |  | CC(C)Cc1cc(-c2ccc(CCN[C@@H](C)[C@H](O)c3ccccc3)cc2)ccc1C(=O)O
2 | 84 nM | 0.5 nM |  | CC(C)Oc1cc(-c2ccc(OCCNC[C@H](O)c3cccc(Cl)c3)cc2)ccc1C(=O)O
3 | 110 nM | 0.32 nM |  | CC(C)COc1cc(-c2ccc(OCCNC[C@H](O)c3cccc(Cl)c3)cc2)ccc1C(=O)O
4 | 280 nM | 0.91 nM |  | CC(C)Oc1cc(-c2ccc(CC(C)(C)NC[C@H](O)c3ccccc3)cc2)ccc1C(=O)O
5 | > 1000 nM | 7.4 nM |  | CC(C)Oc1cc(-c2ccc(C[C@H](CO)NC[C@H](O)c3ccccc3)cc2)ccc1C(=O)O
6 | 91 nM | 0.16 nM |  | O=C(O)c1ccc(-c2ccc(OCCNC[C@H](O)c3ccccc3)cc2)cc1OC1CCCCC1
7 | 210 nM | 1.2 nM |  | CCCOc1cc(-c2ccc(OCCNC[C@H](O)c3ccccc3)cc2)ccc1C(=O)O
8 | 400 nM | 0.55 nM |  | CC(C)COc1cc(-c2ccc(OCCNC[C@H](O)c3ccccc3)cc2)ccc1C(=O)O
9 | 500 nM | 2.4 nM |  | CC(C)Oc1cc(-c2ccc(CCNC[C@H](O)c3ccc(Cl)cc3)cc2)ccc1C(=O)O
10 | > 1000 nM | 8.1 nM |  | CC(C)Oc1cc(-c2ccc(CCNC[C@H](O)c3cccc(N)c3)cc2)ccc1C(=O)O
11 | > 1000 nM | 2.6 nM |  | CC(C)Oc1cc(-c2ccc(CCNC[C@H](O)c3ccc(N)cc3)cc2)ccc1C(=O)O
12 | > 1000 nM | 30 nM |  | CC(C)Oc1cc(-c2ccc(CCNC[C@H](O)c3cccc(NS(C)(=O)=O)c3)cc2)ccc1C(=O)O
13 | 130 nM | 0.19 nM | > 10000 nM | CC(C)Oc1cc(-c2ccc(CCNC[C@H](O)c3ccc(N)nc3)cc2)ccc1C(=O)O
14 | 500 nM | 0.14 nM |  | CC(C)Oc1cc(-c2ccc(CCN[C@@H](C)[C@H](O)c3ccc(O)cc3)cc2)ccc1C(=O)O
15 | 510 nM | 2.4 nM |  | CC(C)Oc1cc(-c2ccc(OCCNC[C@H](O)c3ccccc3)cc2)ccc1C(=O)O
16 | 320 nM | 2.1 nM |  | CC(C)Oc1cc(-c2ccc(CCNC[C@H](O)c3cccc(F)c3)cc2)ccc1C(=O)O
17 | 440 nM | 0.062 nM |  | CC(C)Oc1cc(-c2ccc(CCNC[C@H](O)c3cccc(O)c3)cc2)ccc1C(=O)O
18 | > 1000 nM | 0.26 nM |  | CC(C)Cc1cc(-c2ccc(CCNC[C@H](O)c3cccnc3)cc2)ccc1C(=O)O
19 | 39 nM | 0.035 nM | 1100 nM | Nc1ccc([C@@H](O)CNCCc2ccc(-c3ccc(C(=O)O)c(OC4CCCCC4)c3)cc2)cn1

Row | SMILES | EC50 [1] | EC50 [2] | EC50 [3]
20 | C[C@H](Cc1ccc(-c2ccc(C(=O)O)c(OC3CCCCC3)c2)cc1)NC[C@H](O)c1cccnc1 | 24 nM | 0.069 nM | 
21 | CC(C)Cc1cc(-c2ccc(OCCNC[C@H](O)c3cccc(Cl)c3)cc2)ccc1C(=O)O | 15 nM | 0.68 nM | 
22 | CCCOc1cc(-c2ccc(NCCNC[C@H](O)c3cccc(Cl)c3)cc2)ccc1C(=O)O | 11 nM | 0.21 nM | 
23 | CCCOc1cc(-c2ccc(CCCNC[C@H](O)c3cccc(Cl)c3)cc2)ccc1C(=O)O | 180 nM | 0.7 nM | 
24 | O=C(O)c1ccc(-c2ccc(OCCNC[C@H](O)c3cccc(Cl)c3)cc2)cc1OC1CCCCC1 | 52 nM | 0.27 nM | 
25 | CC(C)Oc1cc(-c2ccc(C[C@@H](C)NC[C@H](O)c3cccc(Cl)c3)cc2)ccc1C(=O)O | 37 nM | 0.19 nM | 
26 | C[C@H](Cc1ccc(-c2ccc(C(=O)O)cc2)cc1)NC[C@H](O)c1cccc(Cl)c1 | 13 nM | 0.18 nM | 
27 | C[C@@H](Cc1ccc(-c2ccc(C(=O)O)cc2)cc1)NC[C@H](O)c1cccc(Cl)c1 | 12 nM | 6 nM | 
28 | CC(C)Oc1cc(-c2ccc(CCNC[C@H](O)c3ccc(O)c(NS(C)(=O)=O)c3)cc2)ccc1C(=O)O | 150 nM | 0.26 nM | 
29 | COc1cc(-c2ccc(C[C@@H](C)NC[C@H](O)c3ccccc3)cc2)ccc1C(=O)O | 83 nM | 0.79 nM | 
